Source: US9724319B2, “Compositions and methods for the reduction or prevention of hepatic steatosis” (priority 2014, dated 2017)

How the values were obtained:
[1] = test system: liver mass or hepatic lipid accumulation; conditions: 25 mg icariin/kg diet; corresponding to 4 mg/kg body weight/day; cited from earlier work
liver triglycerides = conditions: Example 3; HFD mice, six weeks; metformin alone 1.5 g/kg diet; combination: leucine + metformin 0.5 g/kg
Source text: (§1) Chronic high fat diet was used in C57Bl/6 mice as an experimental model of hepatic steatosis. Male C57/BL6 mice were either maintained on standard low-fat diet (control; LFD; 10% energy from fat) or placed on a high fat (HFD; 60% energy from fat, Research Diets #D12492, Research Diets, Inc, New Brunswick, N.J.) at six weeks of age to induce obesity and fatty infiltration of the liver. […] Animals were then randomized to treatments for an additional six weeks, with 10 animals per group, as specified in the following examples.
(§2) In this study, the effects of metformin alone (therapeutic dose) vs. combination therapy with sub-therapeutic amounts of metformin and leucine on liver weight and hepatic lipid accumulation were assessed. Following induction of hepatic steatosis as described in Example 1, animals were treated for six weeks according to the following treatment groups as depicted in Table 22:

[2] = test system: HFD-induced hepatic steatosis; test: Prophylactic treatment concurrent with high fat diet feeding (Examples 6-8); format: in vivo, C57Bl/6 mice; conditions: treatments and HFD initiated on the same day, six weeks, doses as Tables 25-27
Method: C57Bl/6 mice are assigned to the following experimental groups as depicted in Table 25: Drug treatments and high fat diet feeding (as described in Example 1) are initiated on the same day and are carried out for six weeks. The effects of the treatments and diet on liver mass and hepatic lipid accumulation are assessed as described in the preceding examples. […] C57Bl/6 mice are assigned to the following experimental groups as depicted in Table 26: Drug treatments and high fat diet feeding (as described in Example 1) are initiated on the same day and are carried out for six weeks. The effects of the treatments and diet on liver mass and hepatic lipid accumulation are assessed as described in the preceding examples. […] In this study, the prophylactic effects of sub-therapeutic leucine alone, and co-administration of leucine and the PDE5-specific inhibitor icariin on liver mass and hepatic steatosis are assessed. C57Bl/6 mice are assigned to the following experimental groups as depicted in Table 27: Drug treatments and high fat diet feeding (as described in Example 1) are initiated on the same day and are carried out for six weeks. The effects of the treatments and diet on liver mass and hepatic lipid accumulation are assessed as described in the preceding examples.

[3] = test system: high fat diet-induced hepatic steatosis; test: Liver weight after treatment of high fat diet-induced hepatic steatosis; format: in vivo, C57Bl/6 mice; conditions: HFD mice, six weeks, metformin 1.5 g/kg diet
Source text: as §1
In this study, the effects of metformin alone (therapeutic dose), subtherapeutic metformin alone, subtherapeutic leucine, and various combinations of leucine, metformin, and resveratrol on liver weight and hepatic lipid accumulation were assessed. The 1.5 g/kg diet of metformin corresponds to a therapeutically effective dose of metformin in humans. […] Likewise, the 24 g/kg dose of leucine represents a sub-therapeutic dose that was predicted to exert no significant independent effects on liver mass or hepatic steatosis. Following induction of hepatic steatosis as described in Example 1, animals were treated according to the following treatment groups as depicted in Table 21:
as §2

[4] = test system: hepatic steatosis (lipid vesicles in liver cells); test: Histological analysis of hepatic lipid accumulation after high fat diet; conditions: Example 3; HFD mice, six weeks; therapeutic metformin; combination: leucine + metformin 0.5 g/kg
Source text: as §1
In this study, the effects of metformin alone (therapeutic dose), subtherapeutic metformin alone, subtherapeutic leucine, and various combinations of leucine, metformin, and resveratrol on liver weight and hepatic lipid accumulation were assessed. The 1.5 g/kg diet of metformin corresponds to a therapeutically effective dose of metformin in humans. […] Likewise, the 24 g/kg dose of leucine represents a sub-therapeutic dose that was predicted to exert no significant independent effects on liver mass or hepatic steatosis. […]
In this study, the effects of metformin alone (therapeutic dose) vs. combination therapy with sub-therapeutic amounts of metformin and leucine on liver weight and hepatic lipid accumulation were assessed. […]

Molecule	Effect on hepatic lipid accumulation [1]	Effect on liver mass [1]	Effect on liver triglycerides (liver triglycerides)	Effect on HFD-induced hepatic lipid accumulation [2]	Effect on HFD-induced increase in liver mass [2]	Effect on liver weight ([3]; Example 2, leucine 24 g/kg diet, resveratrol 12.5 mg/kg diet)	Effect on liver weight ([3]; Example 3)	Effect on liver weight ([3]; Example 4)	Effect on hepatic steatosis (histological analysis) [4]
COc1ccc(-c2oc3c(CC=C(C)C)c(O[C@@H]4O[C@H](CO)[C@@H](O)[C@H](O)[C@H]4O)cc(O)c3c(=O)c2O[C@@H]2O[C@@H](C)[C@H](O)[C@@H](O)[C@H]2O)cc1 [icariin]	no effect	no effect	–	–	–	–	–	–	–
metformin	–	–	partially reversed the effect of high fat diet on liver triglycerides	attenuates	attenuates	partially reverse the effect of high fat diet on liver weight	reversed the effect of high fat diet on liver weight back to control levels	reversed the effect of high fat diet on liver weight back to control levels	partially reversed hepatic steatosis
